Values quoted from earlier work, collected in patent US11167277B2, “Cu(I)-catalyzed azide-alkyne cycloadditions (CuAAC) ligands and methods for carrying out Cu(I)-catalyzed azide-alkyne cycloaddition reactions” (UNIVERSITY OF PITTSBURGH-OF THE COMMONWEALTH SYSTEM OF …, priority 2014, dated 2021).

Tested on: Zebrafish embryos
Conditions: co-treatment with 1 mM CuSO4, 1.5 mM sodium ascorbate and 0.1 mM TBTA; toxicity attributed to copper(I)

In the case of `c1ccc(Cn2cc(CN(Cc3cn(Cc4ccccc4)nn3)Cc3cn(Cc4ccccc4)nn3)nn2)cc1` [TBTA], the “time beyond which Zebrafish embryos do not survive” value is given as no more than 15 min.
